By viability is commonly meant a read-out of living cells in per cent, often relative to untreated cells.

The nature of this data set: in vitro. The note with it: human, hela cells, % viability.
Consider `Cc1ccc(C(O)CN2CCC(O)(c3ccc(F)cc3)CC2)cc1` (stereo not shown) [CBK283309], for which the viability at 28.5 h, 10 µM worked out at 94.5%. In the case of `Cc1ccc(C(O)CN2CCC(O)(c3ccccc3F)CC2)cc1` (stereo not shown) [CBK283310], the viability at 28.5 h, 10 µM was 93.8%.

For the compound `OC(CN1CCC(O)(c2ccc(F)cc2)CC1)c1ccc(Cl)cc1` (stereo not shown) [CBK283311], the viability at 28.5 h, 10 µM amounted to 89.6%. In the case of `OC(CN1CCC(O)(c2ccccc2F)CC1)c1ccc(Cl)cc1` (stereo not shown) [CBK283312], the viability at 28.5 h, 10 µM came out at 87%.

As for `Cc1[nH]c2cc(C(=O)NCCn3nccc3C)ccc2c1C` [CBK283313], the viability at 28.5 h, 10 µM was 92.8%. Turning to `CCc1c(C(=O)NCCn2ccnc2C)[nH]c2ccc(F)cc12` [CBK283314], the viability at 28.5 h, 10 µM amounted to 92.9%. Consider `Cc1c(C(=O)NCCCCn2ccnc2)oc2c(C)cccc12` [CBK283315], for which the viability at 28.5 h, 10 µM worked out at 99.9%. The figure for `CCCN(CC1CCCO1)C(=O)c1cnn(-c2ccc(F)cc2)c1` (stereo not shown) [CBK283317] is 89.7%; for `CCOC(=O)Cn1c(-c2ccc(OC)cc2)cc2cccnc21` [CBK283320] it is 84.2%; for `CC(=O)NCCN1CCC(O)(c2ccc(C)cc2)CC1` [CBK283321] it is 87.6%.

For the compound `Cc1ccc(C2(O)CCN(CCNC(=O)c3cccs3)CC2)cc1` [CBK283322], the viability at 28.5 h, 10 µM was found to be 87.8%. The figure for `Cc1ccc(-c2cc(C(=O)N(C)Cc3cccn3C)[nH]n2)o1` [CBK283324] is 100%.

`CC(=O)NC1CCN(CC2(c3ccc(F)cc3)CCCC2)CC1` [CBK283327]: the viability at 28.5 h, 10 µM was 89%. The figure for `NC[C@H]1CC[C@H](C(=O)N2CCC(c3ccncc3)CC2)CC1` [CBK283332] is 110%.

For the compound `CCOC(=O)C(C)n1nc(C)n2c(cc3sccc32)c1=O` (stereo not shown) [CBK283333], the viability at 28.5 h, 10 µM amounted to 67%. The figure for `O=C1NC2(CCc3ccccc31)CCN(C(=O)c1ccncc1)C2` (stereo not shown) [CBK283336] is 90.9%. On to `O=C1NC2(CCc3ccccc31)CCN(C(=O)c1ccccn1)C2` (stereo not shown) [CBK283337], for which the viability at 28.5 h, 10 µM was 96%. Then `Cc1ncccc1C(=O)N1CCC2(CCc3ccccc3C(=O)N2)C1` (stereo not shown) [CBK283338], with 108%; and `O=C1CCCC[C@]2(CN(Cc3ccccc3)C[C@H]2c2ccccn2)N1` [CBK283340], with 82.6%; and `Cc1cccc([C@@H]2CN(Cc3ccccc3)C[C@]23CCCCC(=O)N3)n1` [CBK283341], with 97.1%. For the compound `O=C1CCCC[C@]2(CN(Cc3ccccc3)C[C@H]2c2cccnc2)N1` [CBK283342], the viability at 28.5 h, 10 µM is 106%. The figure for `COc1ccc2c(c1)C(=O)NC1(CC2)CCN(Cc2ccccc2)C1` (stereo not shown) [CBK283343] is 95.2%; for `Cc1ccc(CS(=O)(=O)N2CCC3(CC2)CNC(=O)C3)cc1` [CBK283344] it is 88.5%; for `O=C(C1CCCCC1)N1CC(n2nc(-c3cccs3)ccc2=O)C1` [CBK283346] it is 99.2%. Then `O=C1CCC[C@]2(CN(Cc3ccccc3)C[C@H]2c2cccnc2)N1` [CBK283349], with 96.1%; and `O=C1CC2(CCN(S(=O)(=O)c3ccc(F)cc3)CC2)CN1` [CBK283353], with 93.9%.

In the case of `Cc1cc(F)ccc1S(=O)(=O)N1CCC2(CC1)CNC(=O)C2` [CBK283354], the viability at 28.5 h, 10 µM was 104%. The figure for `Fc1ccc(CN2CCC(c3nnc4n3CCCCC4)CC2)cc1F` [CBK283356] is 86.3%. For `O=C1CCC[C@]2(CN(C(=O)C3CC3)C[C@H]2c2ccccc2F)N1` [CBK283357], the viability at 28.5 h, 10 µM worked out at 106%.

For `COCCC(=O)N1C[C@@H](c2ccccc2F)[C@@]2(CCCC(=O)N2)C1` [CBK283360], the viability at 28.5 h, 10 µM is 90.4%. The figure for `CCCC(=O)NC[C@H]1CC[C@H](c2nnc(-c3ccsc3)o2)CC1` [CBK283362] is 98.9%; for `O=C1CCC[C@]2(CN(C(=O)C3CC3)C[C@H]2c2ccc(F)c(F)c2)N1` [CBK283364] it is 111%; for `O=C(C1CCC1)N1CCCC1c1nnc(-c2ccsc2)o1` (stereo not shown) [CBK283365] it is 101%. Consider `CC(=O)N1C[C@H](c2cccc(C)c2)[C@H]2CN(C3CCCC3)CC[C@H]21` [CBK283369], for which the viability at 28.5 h, 10 µM was determined as 88.7%.

As to `O=C(c1ccccc1)N1CCC(c2nnc(-c3ccsc3)o2)CC1` [CBK283371], the viability at 28.5 h, 10 µM stood at 88.5%.

`CC(=O)N1C[C@@H](c2cccc(C)c2)[C@@H]2CN(CC3CC3)CC[C@@H]21` [CBK283372]: the viability at 28.5 h, 10 µM came to 103%. As to `COCc1ccc(C(=O)N2CCC(c3cc4ncccc4[nH]3)CC2)o1` [CBK283373], the viability at 28.5 h, 10 µM was 102%. Take `O=C(Cc1cccc(F)c1)N1CCC(c2cc3ncccc3[nH]2)CC1` [CBK283374]: the viability at 28.5 h, 10 µM was found to be 100%. Consider `CCCC(=O)N1CCC(c2nnc(-c3ccsc3)o2)CC1` [CBK283377], for which the viability at 28.5 h, 10 µM was found to be 85.5%. With `CC(C)(C)C(=O)N1CCC(c2nnc(-c3ccsc3)o2)CC1` [CBK283378], the viability at 28.5 h, 10 µM came out at 89.5%. As to `O=C(CC1CCCC1)N1CCC(c2nnc(-c3ccsc3)o2)CC1` [CBK283381], the viability at 28.5 h, 10 µM is 106%. Turning to `Cc1ccc(C2=CCN(CC(=O)Nc3ncc(C)s3)CC2)o1` [CBK283383], the viability at 28.5 h, 10 µM was 90%. With `CC(C)NC(=O)N[C@H]1CC[C@]2(CC1)CC(=O)c1ccccc1O2` [CBK283389], the viability at 28.5 h, 10 µM was found to be 111%. In the case of `O=C(c1ccccc1F)N1CCC(c2cc3ncccc3[nH]2)CC1` [CBK283391], the viability at 28.5 h, 10 µM was 86.5%.

`O=C(c1cc(C2CCCN(Cc3ccccc3)C2)no1)N1CCCC1` (stereo not shown) [CBK283395]: the viability at 28.5 h, 10 µM came out at 89.7%.

For the compound `Cc1nc(C)c(C(=O)N2CCC(c3cc4ncccc4[nH]3)CC2)s1` [CBK283396], the viability at 28.5 h, 10 µM came to 101%. `O=S(=O)(c1ccccc1)N1CCC(c2cc3ncccc3[nH]2)CC1` [CBK283397]: the viability at 28.5 h, 10 µM worked out at 104%. With `Cn1cc2c(n1)[C@H]1CN(C(=O)c3cc(C(F)(F)F)nn3C)C[C@H]1C2` [CBK283400], the viability at 28.5 h, 10 µM turned out to be 93.8%. As for `CC(C)(C)n1cc2c(n1)[C@H]1CN(C(=O)CN3CCCC3=O)C[C@H]1CC2` [CBK283401], the viability at 28.5 h, 10 µM amounted to 89.2%. For `O=C(C1CCC1)N1CCC(c2nnc(-c3ccsc3)o2)CC1` [CBK283405], the viability at 28.5 h, 10 µM stood at 104%. The figure for `Cc1cc(O)cc(C2CCCN(C(=O)c3ccc(F)c(F)c3)C2)n1` (stereo not shown) [CBK283406] is 105%; for `Cc1noc(-c2cn(C)nc2C2CCCCN2C(=O)C2CC2)c1C` (stereo not shown) [CBK283410] it is 96.9%; for `Cn1nccc1C(=O)N1CCCC(c2cc3ncccc3[nH]2)C1` (stereo not shown) [CBK283413] it is 104%. The figure for `O=C(Cc1ccc(F)cc1)N1CCCC(c2cc3ncccc3[nH]2)C1` (stereo not shown) [CBK283414] is 109%. Then `COc1ccccc1CC(=O)N1CCCC(c2cc3ncccc3[nH]2)C1` (stereo not shown) [CBK283417], with 95.4%; and `Cc1c(C(=O)N2CCCC(c3cc4ncccc4[nH]3)C2)cnn1C` (stereo not shown) [CBK283420], with 94.8%. For the compound `Cc1ccc(CC(=O)N2CCCC2c2n[nH]cc2-c2ccncc2)cc1` (stereo not shown) [CBK283424], the viability at 28.5 h, 10 µM was 106%. The figure for `COc1cccc(CC(=O)N2CCCC(c3cc4ncccc4[nH]3)C2)c1` (stereo not shown) [CBK283426] is 94.1%.

Source of the values: publication PMC12040169 (PLOS Biology, 2025).
